ChEMBL document CHEMBL6127032, “Progress of ATM inhibitors: Opportunities and challenges” (Eur J Med Chem, 2024)
pIC50: −log10 of the molar value. Values after ≈ are worked out from the molar mass of the structure shown. Values belong to the compound of their own block, whether it stands above or below them.

Legend:
[1] = Oral bioavailability in human; assay type: ADME, organism-based; settings: in vivo
[2] = biological target: T1, Serine-protein kinase ATM (Homo sapiens, UniProt Q13315); test: Inhibition of ATM in human HeLa cells; assay type: cell-based
[3] = Inhibition of DNA-PK (unknown origin); design: species or system Homo sapiens
[4] = Inhibition of PI3K (unknown origin); design: species or system Homo sapiens
[5] = biological target: Serine/threonine-protein kinase ATR (Homo sapiens, UniProt Q13535); test: Inhibition of ATR (unknown origin)
[6] = Inhibition of PI4K (unknown origin); design: species or system Homo sapiens
[7] = biological target: Serine/threonine-protein kinase mTOR (Homo sapiens, UniProt P42345); test: Inhibition of mTOR (unknown origin)
[8] = test system: U2OS; test: cells; settings: Homo sapiens
[9] = biological target: T1, Serine-protein kinase ATM; test: Inhibition of ATM (unknown origin)
[10] = Solubility of compound in PBS buffer; assay type: physicochemical

T1 sequence (Q13315 whole entry): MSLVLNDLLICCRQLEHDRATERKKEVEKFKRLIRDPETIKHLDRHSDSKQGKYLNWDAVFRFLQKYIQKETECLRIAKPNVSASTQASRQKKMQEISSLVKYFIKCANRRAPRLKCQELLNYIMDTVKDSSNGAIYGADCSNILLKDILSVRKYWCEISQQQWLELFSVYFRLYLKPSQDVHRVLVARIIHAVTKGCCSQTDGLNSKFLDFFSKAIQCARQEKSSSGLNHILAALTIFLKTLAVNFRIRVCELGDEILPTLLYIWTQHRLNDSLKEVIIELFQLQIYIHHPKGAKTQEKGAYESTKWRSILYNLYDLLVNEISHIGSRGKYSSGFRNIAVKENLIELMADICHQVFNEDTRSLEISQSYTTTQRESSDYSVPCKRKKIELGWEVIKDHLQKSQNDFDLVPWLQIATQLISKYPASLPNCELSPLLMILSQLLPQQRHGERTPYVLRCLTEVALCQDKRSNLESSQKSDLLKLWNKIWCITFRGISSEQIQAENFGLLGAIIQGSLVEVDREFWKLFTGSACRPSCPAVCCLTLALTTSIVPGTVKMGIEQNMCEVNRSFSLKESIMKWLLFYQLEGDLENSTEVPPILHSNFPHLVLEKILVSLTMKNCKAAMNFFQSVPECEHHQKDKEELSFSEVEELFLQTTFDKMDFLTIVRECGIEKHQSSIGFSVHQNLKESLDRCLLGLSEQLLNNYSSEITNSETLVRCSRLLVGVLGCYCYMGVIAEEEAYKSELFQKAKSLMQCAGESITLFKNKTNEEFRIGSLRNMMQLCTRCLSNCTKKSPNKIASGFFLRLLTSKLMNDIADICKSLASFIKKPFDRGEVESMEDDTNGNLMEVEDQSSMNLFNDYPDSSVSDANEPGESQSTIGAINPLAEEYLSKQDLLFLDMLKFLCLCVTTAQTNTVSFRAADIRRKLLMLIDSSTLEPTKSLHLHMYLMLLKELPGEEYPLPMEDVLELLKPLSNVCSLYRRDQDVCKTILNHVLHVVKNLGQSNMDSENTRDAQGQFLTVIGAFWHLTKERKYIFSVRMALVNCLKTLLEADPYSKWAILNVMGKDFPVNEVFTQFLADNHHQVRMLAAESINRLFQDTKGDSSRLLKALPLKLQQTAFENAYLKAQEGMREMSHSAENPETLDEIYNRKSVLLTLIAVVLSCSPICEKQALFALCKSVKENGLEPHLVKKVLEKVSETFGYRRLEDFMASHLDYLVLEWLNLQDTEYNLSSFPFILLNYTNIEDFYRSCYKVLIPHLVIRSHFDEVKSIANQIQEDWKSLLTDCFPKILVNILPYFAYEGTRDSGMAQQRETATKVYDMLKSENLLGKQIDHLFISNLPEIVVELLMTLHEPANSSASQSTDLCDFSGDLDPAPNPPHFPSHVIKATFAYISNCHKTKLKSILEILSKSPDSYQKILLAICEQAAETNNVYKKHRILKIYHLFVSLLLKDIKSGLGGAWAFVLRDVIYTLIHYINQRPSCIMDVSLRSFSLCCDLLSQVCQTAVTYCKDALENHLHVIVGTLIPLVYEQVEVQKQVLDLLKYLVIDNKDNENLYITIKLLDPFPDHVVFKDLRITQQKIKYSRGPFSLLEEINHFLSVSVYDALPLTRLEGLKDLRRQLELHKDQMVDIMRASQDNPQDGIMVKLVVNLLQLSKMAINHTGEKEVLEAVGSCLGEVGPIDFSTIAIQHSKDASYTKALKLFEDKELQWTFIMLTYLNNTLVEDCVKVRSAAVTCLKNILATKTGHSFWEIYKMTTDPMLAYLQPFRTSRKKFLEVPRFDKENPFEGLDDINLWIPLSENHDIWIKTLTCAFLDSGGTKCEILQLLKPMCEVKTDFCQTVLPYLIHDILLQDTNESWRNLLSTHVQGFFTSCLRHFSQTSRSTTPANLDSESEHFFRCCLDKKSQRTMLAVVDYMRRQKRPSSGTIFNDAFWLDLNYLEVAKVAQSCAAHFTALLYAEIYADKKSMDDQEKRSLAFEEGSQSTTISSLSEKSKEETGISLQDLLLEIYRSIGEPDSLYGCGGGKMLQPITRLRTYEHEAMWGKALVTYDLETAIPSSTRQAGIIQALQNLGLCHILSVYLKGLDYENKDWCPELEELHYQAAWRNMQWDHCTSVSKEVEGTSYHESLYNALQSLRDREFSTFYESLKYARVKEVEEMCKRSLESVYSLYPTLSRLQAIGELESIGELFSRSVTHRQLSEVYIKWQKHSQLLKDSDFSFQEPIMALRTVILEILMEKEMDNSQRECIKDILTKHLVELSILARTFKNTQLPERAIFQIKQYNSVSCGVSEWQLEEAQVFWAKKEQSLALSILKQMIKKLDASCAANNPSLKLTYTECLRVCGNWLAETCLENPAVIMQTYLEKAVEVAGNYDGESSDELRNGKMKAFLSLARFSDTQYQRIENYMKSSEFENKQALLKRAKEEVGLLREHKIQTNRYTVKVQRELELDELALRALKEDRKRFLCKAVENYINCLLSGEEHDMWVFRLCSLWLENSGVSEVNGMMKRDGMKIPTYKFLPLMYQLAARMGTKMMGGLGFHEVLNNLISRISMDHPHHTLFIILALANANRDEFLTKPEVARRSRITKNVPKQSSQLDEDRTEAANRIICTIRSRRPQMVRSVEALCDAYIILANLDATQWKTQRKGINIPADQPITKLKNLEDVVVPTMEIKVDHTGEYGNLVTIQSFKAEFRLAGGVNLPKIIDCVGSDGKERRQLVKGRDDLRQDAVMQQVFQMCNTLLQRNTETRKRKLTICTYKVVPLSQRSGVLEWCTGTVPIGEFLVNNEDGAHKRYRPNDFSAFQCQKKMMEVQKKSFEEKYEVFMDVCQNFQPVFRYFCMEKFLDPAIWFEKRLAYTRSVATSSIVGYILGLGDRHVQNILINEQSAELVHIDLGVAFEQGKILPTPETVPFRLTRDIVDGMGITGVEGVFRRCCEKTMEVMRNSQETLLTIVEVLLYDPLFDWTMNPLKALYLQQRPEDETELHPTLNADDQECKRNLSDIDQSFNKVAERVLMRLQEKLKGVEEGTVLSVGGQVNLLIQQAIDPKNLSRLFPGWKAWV

bioavailability [1]: 37%
SMILES: C[C@@H]1CN(CC(=O)Nc2ccc3c(c2)Cc2cccc(-c4cc(=O)cc(N5CCOCC5)o4)c2S3)C[C@H](C)O1

pIC50 [2]: 7.89 | pIC50 [3]: 5.04 | pIC50 [4]: 5.00 | pIC50 [5]: < 4.00 | pIC50 [6]: < 4.00 | pIC50 [7]: < 5.00
SMILES: CN1CCN(CCC(=O)Nc2ccc3c(c2)Sc2cccc(-c4cc(=O)cc(N5CCOCC5)o4)c2S3)CC1

pIC50 [8]: 6.64
SMILES: O=c1cc(N2CCOCC2)cc(N2CCCCC[C@@H]2Cc2ccccc2)[nH]1

pIC50 [9]: 8.11
SMILES: CC(C)n1c(=O)n(C)c2cnc3cc(F)c(-c4ccc(OCCCN5CCCCC5)nc4)cc3c21 [AZD-1390]

pIC50 [3]: 6.22 | solubility [10]: 93 µg/mL (≈ 207 µM)
SMILES: COc1cc2ncc3c(c2cc1-c1cn(C)nc1C)n(-c1c(F)cncc1OC)c(=O)n3C [LARTESERTIB]
